Reference: patent US20070238717A1, “Neuroprotection with Beta-Lactam Compounds” (Johns Hopkins University, priority 2003, published 2007)

Tests used:
EAAT2 = experiment: Spinal cord organotypic culture screen for EAAT2 protein expression (slot blot); assay type: cell-based, rat; conditions: for EAAT2 expression: positive controls, after 3 days in culture
Text: Screening Assay for EAAT2 Protein overexpression. Spinal cord organotypic cultures and astroglial cultures are used to screen for drugs capable of stimulating EAAT2 synthesis and function. Organotypic cultures offer the advantage in that they maintain the normal architecture of neuron-astroglial interactions in vitro and are derived from post natal tissue; thus may better reflect astroglial responses in vivo (rather than embryonic cells). Thus a drug that acts either on an astrocyt—or induces neurons to secrete factors that alert astrocytes—better reflects the “natural” condition of delivering a drug to a whole animal.
Organotypic Spinal Cord. Spinal cord organotypic cultures have been described by us in detail in the past. Rothstein J D et al., N. Engl. J. Med. 1992; 326:1464-1468. Briefly, 300 um sections of rat lumbar spinal cord, from postnatal day 8-10 rat pups, are placed on Millipore Millicell CM semipermeable membranes. Each well contains 5 slices (FIG. 2A). Fifty-100 cultures can be prepared weekly. Each drug (10-100 μM) was added for 3-7 days, along with cell culture medium/serum. Cultures were harvested and 5-50 μg of tissue was applied to slot blot apparatus for detection of EAAT2 by standard Western blotting/chemiluminescence methods described in the past. Kuncl R W et al., Motor neuron diseases. In: Asbury A K et al., editors. Diseases of the Nervous System. 2 ed. Philadelphia: W. B. Saunders, 1992:1179-1208; Rothstein J D et al., Neuron 1994; 13:713-725. All antipeptide antibodies were affinity purified and highly specific for transporter subtypes. By this method, increases greater than 50% of expressed protein can be detected. For each antibody slot blot, the homogenates used are expected to be within the linear range for antibody detection, based on prior standard curves.
Screening Library-Assay Design. The library of compounds for these first studies was the NINDS Custom Collection from Microsource Discovery. The library is composed of 1040 compounds in 96 well plates, that also included positive control for transporter synthesis (dibutyryl cyclic AMP [dbcAMP], GDNF). […] The library is a unique collection of known bioactive compounds that permit the simultaneous evaluation of hundreds of marketed drugs and biochemical standards. Each compound was studied at a final concentration of 10-100 μM. All assays were performed in duplicate. Every blot included control—untreated tissue and a positive control, such as those identified above.
Data Analysis. All blots were analyzed by laser densitometry (BioRad Image Quant) and the duplicate points were averaged. Each blot included a positive control standard (e.g. dbcAMP) and a negative control standard (e.g. serum, DMSO). Data was kept in Excel Spreadsheets, using a numerical/text coding system. All positive drugs (positive defined as at least a 50% increased in protein expression) were re-evaluated.

[1] = test system: primary cortical mixed neuronal-glial cell cultures; assay type: cell-based
Procedure: In Vitro Model of Ischemia—Oxygen glucose deprivation (FIG. 7A) The in vitro model of oxygen glucose deprivation (OGD) is a well known and well accepted model of acute neural injury. In our in vitro model of ischemia, one hour of oxygen glucose deprivation (OGD) is lethal to cultured neurons, with toxicity known to involve excess glutamate. However, when these cultures are preconditioned 24 hours prior to the lethal condition with transient OGD (5 minutes), there is a dramatic and robust resistance of neurons to cell death.
Method. Primary cortical mixed neuronal-glial cell cultures are prepared from gestation day 14-16 CD1 mice. The preparation of these cultures from mouse fetal cortex is well-described. Experiments are performed at days in vitro 13-15. In the experimental condition, cultures are subjected to oxygen glucose deprivation (OGD), an in-vitro model of ischemia. Cortical cells are either subjected to control treatment (media, modified Earle's balanced salt solution including glucose and bubbled with 5% CO2 95% O2, is changed alongside treatment groups, but no OGD is performed), or 5 minutes (sublethal) of OGD (using modified Earle's balanced salt solution which is devoid of glucose and bubbled with 10% H2, 85% N2, and […]). Anaerobic conditions are achieved using an anaerobic chamber at 37° C. OGD is terminated by exchange of media back to oxygenated growing medium. Twenty-four hours following the above, cortical cells are subjected either to no treatment, or one hour of OGD. Neuronal survival is determined by computer-assisted cell counting after staining with the fluorescent vital dyes propidium iodide (as an indicator of neuronal death) and Hoechst 33342 (as an indicator of total number of neurons) and is presented as percent of cell death. Glial nuclei fluoresce at a lower intensity and are gated out. […] Following 1 hour OGD, cells are returned to growing medium without drugs.

[2] = test system: large ventral horn motor neurons in organotypic spinal cord cultures; experiment: In vitro model of chronic motor neurodegeneration (THA) in organotypic spinal cord cultures; assay type: cell-based, rat; conditions: THA 100 μM, 4 weeks, drug 0 to 100 μM, FIG. 7B
Procedure: In vitro model of chronic motor neurodegeneration (FIG. 7B). A model of chronic neurodegeneration was used, based on the blockade of glutamate transport in spinal cord organotypic cultures, with the non specific inhibitor threo-hytdroyxaspartate (THA) or TBOA. Chronic incubation of cultures with THA (or TBOA) leads to chronic increase in extra cellular glutamate and subsequent slow death of motor neurons (over 4 weeks).
To determine if drug induced GLT1 promoter activation, and the subsequent over expression of GLT1 protein could be neuroprotective, we used the organotypic spinal cord paradigm. Organotypic spinal cord cultures were prepared from lumbar spinal cords of 8-day-old rat pups, as described previously. […] No drugs were added for the first 7 days following culture preparation. THA was then added to experimental cultures at a concentration of 100 μM, which produces death of motor neurons within 3 to 4 weeks. […] After 4 weeks, cultures were fixed, and immuostained for neurofilament (SMI-32, Sternberger) to quantify large ventral horn motor neurons (a well established method to follow motor neuron survival in this system).

[3] = test system: cultures prepared from GLT-1 null mice; experiment: Chronic motor neurodegeneration model in cultures prepared from GLT-1 null mice; assay type: cell-based; conditions: not shown
G93A SOD1 mice = experiment: In vivo neuroprotection in the G93A SOD1 mouse
Text: Numerous studies have documented a contributory role for excess glutamate in this mouse model—and role for modulating glutamate receptors or transporters in neuroprotective strategies. Guo H., et al. Hum Mol. Genet. 2003; 12:2519-2532. Modest over expression—by a transgenic approach—can alter disease onset and/or survival.

GLT1 = GLT1 expression in spinal cords of chronically treated G93A mice; assay type: in vivo
[4] = intravenous, antibiotic doses, after 0.5 hours; cited from earlier work
[5] = intravenous, pediatric bacterial meningitis, after 3-4 hours; cited from earlier work
[6] = 200 mg/kg ip from approximately 12 weeks of age
[7] = started at 70 days of age, two weeks of therapy, vs saline

## CCC(C)(C)C(=O)C(=O)N1CCC[C@H]1C(=O)OCCCc1cccnc1 [GPI-1046]
EAAT2
  EAAT2 expression: large increase

## penicillin
EAAT2; first screen, 10-100 μM
  active in increasing EAAT2 in the first screen: active

## CN[C@H](CC(C)C)C(=O)N[C@H]1C(=O)N[C@@H](CC(N)=O)C(=O)N[C@H]2C(=O)N[C@H]3C(=O)N[C@H](C(=O)N[C@H](C(=O)O)c4cc(O)cc(O)c4-c4cc3ccc4O)[C@H](O)c3ccc(c(Cl)c3)Oc3cc2cc(c3O[C@@H]2O[C@H](CO)[C@@H](O)[C@H](O)[C@H]2O[C@H]2C[C@](C)(N)[C@H](O)[C@H](C)O2)Oc2ccc(cc2Cl)[C@H]1O [vancomycin]
EAAT2
  GLT1 levels: did not alter

## CO/N=C(\C(=O)N[C@@H]1C(=O)N2C(C(=O)O)=C(CSc3nc(=O)c(=O)[nH]n3C)CS[C@H]12)c1csc(N)n1 [ceftriaxone]
EAAT2; concentration used in the THA neuroprotection study
  increase of GLT1 protein and function: at least 3 fold
EAAT2; follow-up dose response analysis, FIG. 2F
  EC50: 3.5 µM
[1]; 1 μM added 48 hours prior to 1 hour OGD, 50% without drug
  percentage of neuronal cell death: 20%
[1]; acute administration, 1 hour OGD
  neuroprotection, acute administration: not protective
[2]
  motor neuron loss / neuroprotection: prevented motor neurons loss in a dose dependent manner
[3]
  neuroprotection in GLT-1 null cultures: cannot be seen
G93A SOD1 mice; [6]
  age by which strength preservation was lost: ≤ 18 weeks
  persistence of strength effect: 4 weeks
  time after treatment at which strength effect was observed: ≤ 7 days
G93A SOD1 mice; 200 mg/kg ip from approximately 12 weeks of age, FIG. 7C
  loss of muscle strength (grip strength): significantly delayed
G93A SOD1 mice; 200 mg/kg ip from approximately 12 weeks of age, FIG. 7D
  increase of over all survival: 7 to 10 days
G93A SOD1 mice; same dose started at 42 days of age
  survival, earlier administration: survival was also increased
G93A SOD1 mice; [7]
  hypercellular-associated gliosis and inflammation: reduction
  motor neuron loss in vivo: significant prevention
GLT1
  endogenous GLT1 expression in spinal cords: increase endogenous GLT1 expression significantly

## CO/N=C(\C(=O)N[C@@H]1C(=O)N2C(C(=O)O)=C(COC(N)=O)CS[C@H]12)c1ccco1 [cefuroxime]
[1]; compared with ceftriaxone, 1 hour OGD
  neuroprotection, pretreatment: Comparable neuroprotection

## CO/N=C(\C(=O)N[C@@H]1C(=O)N2C(C(=O)O)=C(CSc3nc(=O)c(=O)[nH]n3C)CS[C@H]12)c1csc(N)n1 [ceftriaxone sodium]
[4]
  maximum average plasma level: 82 to 257 µg/mL
[5]
  maximum CSF level in inflamed meninges: 1.3 to 44 µg/mL

## CCCC(=O)Nc1ncnc2c1ncn2[C@@H]1O[C@@H]2COP(=O)(O)O[C@H]2[C@H]1OC(=O)CCC [dbcAMP, dibutyryl cyclic AMP]
EAAT2
  EAAT2 expression: large increase

B1: GDNF: positive control for transporter synthesis (protein, UniProt P39905 78-211, looked up)
Glial cell line-derived …: SPDKQMAVLPRRERNRQAAAANPENSRGKGRRGQRGKNRGCVLTAIHLNVTDLGLGYETKEELIFRYCSGSCDAAETTYDKILKNLSRNRRLVSDKVGQACCRPIAFDDDLSFLDDNLVYHILRKHSAKRCGCI
EAAT2
  EAAT2 expression: large increase
